Common to all, as to format: in vivo
For one experiment, the system named is Tuta absoluta. The experiment is described as follows: Tomato leaf miner damage on tomato plants, natural infestation in greenhouse. As to the method: FIGS. 3A-3E are images and bar graphs showing the effect of 4 mM of phenylalanine applied by drenching or spraying on the severity of […] in tomato, 13 days post treatment. FIG. 3A—an image showing the damage caused by the tomato leaf miner, the insect moth Tuta absoluta on tomato leaflet. FIG. 3B—a vertical bar graph showing severity of damage of Tuta absoluta on tomato leaves treated with drench or spray of 4 mM solution phenylalanine. Disease was evaluated on a 0-100% severity of symptoms coverage and calculation of area under disease progress curve (AUDPC) 13 days after treatment. […] Symptoms incidence per plant was evaluated 30 days after treatment. […] FIG. 3C—a vertical bar graph showing the effect of 4 mM Phe solution on the incidence of tomato leaf miner on tomato plants. The Phe solution was applied by spraying and by drench on the tomato plants at 3 days before and 4 hours before incubation in the greenhouse. Infection was natural. FIG. 3D—a vertical bar graph showing the effect of 4 mM Phe solution on the incidence of tomato leaf miner on tomato plants. The Phe solution was applied by spraying and by drench on the tomato plants at 3 days before and 4 hours before incubation in the greenhouse. Infection was natural. Symptoms incidences per plant at large size and at smaller size (up to 1 cm) were evaluated 30 days after treatment. […] FIG. 3E—a vertical bar graph showing the effect of 4 mM Phe solution on the rate of tomato leaf miner symptoms on tomato plants. The Phe solution was applied by spraying and by drench on the tomato plants at 3 days before and 4 hours before incubation in the greenhouse. Infection was natural. Symptoms incidences per plant at large size and at smaller size (up to 1 cm) were evaluated 30 days after treatment and the percent of large symptoms was calculated.
Tomato plants were grown in pots in a nonheated greenhouse where temperatures were 17-32° C. […] Damage of the pest was evaluated according to a 0-100% severity scale where 0=no symptoms followed by a calculation of area under disease progress curve (AUDPC) 13 days after treatment.

For experiment [1], the system named is Tomato yellow leaf curl virus (TYLCV). Kind of experiment: Tomato yellow leaf curl virus severity on tomato plants. Particulars: 4 mM Phe solution, spray and drench to root zone; AUDPC during 51 days; FIG. 13. Here is the method:
FIG. 13 is a bar graph showing the effect of 4 mM solution on the severity of Tomato yellow leaf curl virus (TYLCV) on leaves of tomato plants. The Phe solution was applied by spraying and by drench on the tomato plants at 3 days before and 4 hours before incubation in the greenhouse close to TYLCV infected tomato plants. Infection was natural by the vector insect silverleaf white fly. Disease severity was evaluated on a scale of 0-100% severity of symptoms coverage during 51 days after treatment and it is expressed as the area under disease progress curve (AUDPC).
The effect of Phe on TYLCV Begomovirus on tomato plants was assessed. Tomato yellow leaf curl virus (TYLCV) is a DNA virus from the genus Begomovirus. The virus is transmitted by an insect vector the whitefly Bemisia tabaci, (silverleaf whitefly; sweet potato whitefly from the family Aleyrodidae). Plants infected are tomato and also eggplant, potato, tobacco, bean, and pepper. Virus infection causes stunting, reduction of leaf size, upward cupping/curling of leaves, chlorosis on leaves and flowers, and reduction of fruit production.

The subject of the next experiment is Botrytis cinerea. The experiment is described as follows: Tomato gray mold severity on leaves of tomato plants. As to the method: Plants of tomato (Solanum esculentum) and cucumber (Cucumis sativus) were grown from seeds in a nursery and transplanted into 1-liter pots at 40 to 50 days after seeding in an unheated greenhouse. Plants were fertilized proportionally with drippers 2-3 times per day with 5:3:8 NPK fertilizer (irrigation water was planned to have total N, P and K concentrations of 120, 30 and 150 mg/L, respectively; EC 2.2 dS/m), allowing for 25-50% drainage. Plants were maintained at 20 to 30° C. with natural light, and relative humidity of 50-90% in a pest- and disease-free greenhouse during the growth period and then transferred to an area where diseases were allowed to develop following pathogen infection on intact leaves as described below.
Treatments in experiments were replicated 5-10 times. Replicates of each treatment were arranged randomly. Disease severity data in percentages were arcsin-transformed before further analysis. Disease severity data were analyzed using ANOVA and Fisher's protected LSD test. Standard errors (SE) of the means were calculated and disease levels were statistically separated (P≤0.05) following a one-way analysis of variance. A control experiment presents the severity of the disease with application of only water without the Phe.
Gray mold inducing pathogen Botrytis cinerea [Pers.:Fr. [Teleomorph: Botryotinia fuckeliana (de Bary) Whetzel] (isolate BcI16; [Swartzberg D. et al., Eur. J. Plant Pathol., 2008, 120:289-297])] was cultured on potato dextrose agar (PDA, Difco, Detroit, Mich.) in 90 mm diam. petri dishes containing 15 ml PDA each and incubated at 20° C. The inoculum was maintained on PDA and transferred every two weeks. Gray mold conidia were harvested from 10 to 14-day-old cultures by agitating 1 cm^2 of agar bearing mycelium and conidia in a glass tube with tap water. The suspension was then filtered through cheesecloth. The concentration of conidia was determined using a hemocytometer and a light microscope, and adjusted to 5×10^5 conidia/ml. Since B. cinerea conidia need carbon and phosphate for germination and penetration, 0.1% glucose was added to the final conidial suspension together with 0.1% KH2PO4. […] Plant attached tomato leaves were examined. Whole plants were kept in a humidity chamber at 20±1° C., 97±3% RH, and 1,020 lux light intensity. Plants were infected by spraying the whole plant with 2 ml of a 5×10^5 conidia/ml suspension or were infected after wounding with a needle and dropping 10 μL drops of conidia suspension prepared as mentioned above. Disease severity was evaluated on each plant using a pictorial key; 0=no infection (all leaves are symptomless) and 100=all leaves are fully covered by gray mold symptoms.

The test system of the next experiment is Tetranychus urticae. The experiment is described as follows: Red spider mite damage on tomato plants, natural infestation in greenhouse. To be noted: 4 mM Phe solution, drench or spray, each treatment; AUDPC during 30 days; FIG. 9. Here is the method: FIG. 9 is a bar graph showing the effect of 4 mM Phe solution on the severity of Tetranychus urticae red spider mite on leaves of tomato plants. The Phe solution was applied by spraying and by drench on the tomato plants at 3 days before and 4 hours before incubation in the greenhouse. Symptoms severity was evaluated on a scale of 0-100% severity of symptoms coverage during 30 days after treatment and it is expressed as the area under disease progress curve (AUDPC).
The red spider mite Tetranychus urticae Koch, (also two-spotted spider mite) occurred naturally on the treated tomato plants. The plants were kept in a greenhouse with 18-28° C. Typical scratching symptoms severity were evaluated on each plant; 0=no infection (all leaves are symptomless) and 100=leaves were fully covered by symptoms.

As for `N[C@@H](Cc1ccccc1)C(=O)O` [Phe, Phenylalanine], the “Severity of damage of the moth Tuta absoluta leaf miner on tomato leaves” value in the experiment with Tuta absoluta (4 mM Phe solution, drench or spray, each treatment, FIG. 3C) is given as “significantly suppressed”. The “Leaf miner symptoms, small (up to 1 cm long) and large” value with Tuta absoluta (4 mM Phe spray and Phe drench, 30 days after treatment, FIG. 3D) was “suppressed”. The “Rate (in %) of larger leaf miner symptoms” value with Tuta absoluta (4 mM Phe spray and drench, 30 days after treatment, FIG. 3E) is “reduced”. In experiment [1], the “Severity of Tomato yellow leaf curl virus on tomato plants canopy” value is recorded as “significantly suppressed”. The “Disease control effect on severity of tomato gray mold” value is recorded as “significantly better disease control effect than 2 mM” with Botrytis cinerea (4 mM vs 2 mM Phe, drench to the root zone, FIG. 14); “significantly better disease control effect than 2 mM” in the experiment with Botrytis cinerea (4 mM vs 2 mM Phe, sprayed or drenched, wound infection, 1-4 mM series, FIG. 16); “significantly better disease control effect than 2 mM” in the experiment with Botrytis cinerea (4 mM vs 2 mM Phe, sprayed or drenched, wound infection, 2-4 mM series, FIG. 17); “significantly better disease control effect than 2 mM” with Botrytis cinerea (4 and 8 mM vs 2 mM Phe, sprayed, FIG. 15). Further, in the experiment with Tetranychus urticae, the “Severity of damage of the Tetranychus urticae red spider mite on tomato leaves” value is given as “significantly suppressed”.
